Laboratory results taken from US5175253A, “Binding peptides” (Washington University, priority 1991, dated 1992).
pKd: −log10 of the molar value. Like-named read-outs stand apart in the source and are kept apart here. Values belong to the compound of their own block, whether it stands above or below them. Ends that are not written are not given here.

Tests used:
[1] = system: SEC receptor; experiment: Competition for binding of α1 AT-125I trypsin complexes to HepG2 cells; parameters: species or system human; details: complexes 50 nM, competitor in 50-fold molar excess, 2 hrs at 4° C.
Description: FIG. 2 presents two bar graphs which show competition for binding and internalization of α1 AT^125 I trypsin complexes by HepG2 cells. For panel a, HepG2 cells were incubated for 2 hours at 4° C. in binding buffer, α1 AT-^125 I trypsin complexes in subsaturating concentrations (50 nM) and competing unlabelled proteins or synthetic peptides in 50-fold molar excess. The cells were then rinsed, homogenized and cell-associated radioactivity determined. Binding in the absence of competitor was arbitrarily designated 0% inhibition of binding on the vertical axis. Results represent mean and 1 standard deviation for 3 separate determinations of each competitor. For panel b, HepG2 cells were incubated for 1 hour at 37° C. in binding buffer, α1 AT^125 I trypsin complexes in subsaturating concentrations (50 nM) and competing unlabelled proteins or synthetic peptides in 50-fold molar excess. […] Internalization in the absence of competitor was arbitrarily designated 0% inhibition of internalization on the vertical axis. Results represent mean and 1 standard deviation for 3 separate determinations of each putative competitor. Partial amino acid sequences for α1 AT and peptides are shown at the top of each panel. […]

[2] = system: SEC receptor; experiment: Competition for internalization of α1 AT-125I trypsin complexes by HepG2 cells; format: cell-based, human; details: 50-fold molar excess, 60 minutes at 37° C., Proteinase K-resistant radioactivity
Description: FIG. 2 presents two bar graphs which show competition for binding and internalization of α1 AT^125 I trypsin complexes by HepG2 cells. For panel a, HepG2 cells were incubated for 2 hours at 4° C. in binding buffer, α1 AT-^125 I trypsin complexes in subsaturating concentrations (50 nM) and competing unlabelled proteins or synthetic peptides in 50-fold molar excess. The cells were then rinsed, homogenized and cell-associated radioactivity determined. Binding in the absence of competitor was arbitrarily designated 0% inhibition of binding on the vertical axis. Results represent mean and 1 standard deviation for 3 separate determinations of each competitor. For panel b, HepG2 cells were incubated for 1 hour at 37° C. in binding buffer, α1 AT^125 I trypsin complexes in subsaturating concentrations (50 nM) and competing unlabelled proteins or synthetic peptides in 50-fold molar excess. […] Internalization in the absence of competitor was arbitrarily designated 0% inhibition of internalization on the vertical axis. Results represent mean and 1 standard deviation for 3 separate determinations of each putative competitor. Partial amino acid sequences for α1 AT and peptides are shown at the top of each panel.
The cells were then rinsed extensively and incubated with Proteinase K for an additional 60 minutes at 4° C. to remove any surface bound radiolabelled ligand. Internalization was defined as radioactivity associated with the resulting cell pellet. […] Higher degrees of inhibition were achieved by higher concentrations of competitors in other tests.

[3] = system: SEC receptor; experiment: Competition for binding of 125I peptide 105Y to HepG2 cells; parameters: species or system human; details: 125I peptide 105Y 50 nM, 2 hrs at 4° C., unlabelled competitor
Description: For each test HepG2 cells were incubated for 2 hrs at 4° C. in binding buffer, ^125 I peptide 105Y at saturating concentrations (50 nM) and competing unlabelled synthetic peptides in the concentrations specified on the horizontal axis. […] Binding in the absence of competitor was arbitrarily designated 100% binding on the vertical axis. Each data point and set of error bars represent mean and 1 standard deviation for four separate determinations. Partial amino acid sequences of α1 AT and synthetic peptides are shown at the top of each of panels a, b and c.
Each bar represents mean and 1 standard deviation for 3 separate determinations.

[4] = system: SEC receptor; experiment: Direct binding of 125I peptide 105C to HepG2 cells; parameters: species or system human
Description: (§1) Left panel a: cells were incubated 2 hours at 4° C. with several different concentrations of ^125 I peptide 105C in the absence (open circles, total ligand binding) or the presence of unlabelled peptide 105C in 200-fold molar excess (filled circles, nonspecific binding). The difference was designated specific binding (open triangles). The cells were then rinsed and cell-associated radioactivity was determined by gamma counting of cell homogenates. Right panel b: cells were incubated for 2 hours at 4° C. with ^125 I peptide 105C in subsaturating concentrations (50 nM) in the absence or presence of unlabelled competing proteins or peptides as indicated on the horizontal axis. The molar excess in fold of each competitor is indicated in parentheses. Binding in the absence of competitor was arbitrarily designated 0% inhibition of binding on the vertical axis.
(§2) The direct binding of peptide 105C to HepG2 cells was also examined. This peptide was radioiodinated by the chloramine T method and purified by reverse phase C:18 chromatography. Separate monolayers of cells were incubated with ^125 I-105C in several different concentrations either in the absence or presence of unlabelled 105C in 200-fold molar excess (FIG. 3, left panel a). […]

[5] = target: T1, substance P receptor (Rattus norvegicus, UniProt P14600); experiment: Competition for binding of substance P to a stable transfected cell line expressing the substance P receptor
T1 construct: expressed in transfected cells

[6] = system: SEC receptor; experiment: Competition for binding to, and cross-linking of, the SEC receptor of HepG2 cells; parameters: species or system human
[7] = system: SEC receptor; details: cited from earlier work
[8] = system: SEC receptor; experiment: Competition for binding of 125I peptide 105C to HepG2 cells; parameters: species or system human; details: 125I peptide 105C 50 nM, 2 hours at 4° C.
Description: as §1, §2

[9] = system: SEC receptor; details: unlabelled competitor; cited from earlier work
[10] = system: synthesis of α1 AT; details: cited from earlier work
[11] = Solubility of peptides in water and DMSO
Description: Some of the peptides used as candidate competitors, especially the pentapeptides, were dissolved in dimethylsulfoxide (DMSO) because they were not soluble in water. For all of these tests the same final concentration of DMSO was added to each cell monolayer.

T1 sequence (P14600 whole entry): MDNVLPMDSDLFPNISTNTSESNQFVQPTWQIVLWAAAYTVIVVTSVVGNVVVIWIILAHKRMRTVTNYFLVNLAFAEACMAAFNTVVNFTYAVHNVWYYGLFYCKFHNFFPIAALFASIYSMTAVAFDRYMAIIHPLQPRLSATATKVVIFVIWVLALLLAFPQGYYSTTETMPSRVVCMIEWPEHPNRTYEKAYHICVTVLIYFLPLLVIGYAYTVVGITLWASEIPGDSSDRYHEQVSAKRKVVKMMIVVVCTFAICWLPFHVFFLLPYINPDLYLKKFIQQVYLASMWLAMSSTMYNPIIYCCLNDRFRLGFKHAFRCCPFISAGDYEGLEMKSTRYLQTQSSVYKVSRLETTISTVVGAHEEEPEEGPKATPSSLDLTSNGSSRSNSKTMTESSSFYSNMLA

Compound: Phe-Val-Tyr-Leu-Ile (FVYLI) [peptide 105C]
- inhibition of binding of α1 AT-125I trypsin complexes to HepG2 cells [1]: inhibits binding
- inhibition of internalization of α1 AT-125I trypsin complexes [2]: inhibits internalization as effectively as peptide 105Y and unlabelled α1 AT-trypsin complexes
- competition for binding of 125I peptide 105Y to HepG2 cells [3]: compete as effectively as peptide 105Y
- competition for binding of 125I peptide 105Y to HepG2 cells ([3]; listed as FVYLI): no difference in inhibition of binding
- direct binding to HepG2 cells ([4]; 125I-105C with or without unlabelled 105C in 200-fold molar excess): specific and saturable binding
- pKd ([4]; 125I-105C, HepG2 cells, 2 hours at 4° C., read-out: point of half-maximal saturation): ~7.40

Compound: CSCC[C@H](NC(=O)[C@H](CC(C)C)NC(=O)[C@H](Cc1cnc[nH]1)NC(=O)CNC(=O)[C@@H](NC(=O)[C@H](C)NC(=O)[C@H](Cc1c[nH]c2ccccc12)NC(=O)[C@H](CCC(N)=O)NC(=O)[C@H](CC(N)=O)NC(=O)CNC(=O)[C@H](CC(C)C)NC(=O)[C@H](CCCN=C(N)N)NC(=O)[C@H](CCC(N)=O)NC(=O)[C@@H]1CCC(=O)N1)C(C)C)C(N)=O [bombesin]
- competition for binding of substance P [5]: do not compete for binding of substance P
- competition for binding to, and cross-linking of, the SEC receptor [6]: compete for binding to, and cross-linking of, the SEC receptor

Compound: native α1 AT: purified human plasma α1-antitrypsin, 55 kDa serum glycoprotein
- inhibition of internalization of α1 AT-125I trypsin complexes [2]: no significant inhibition of internalization

Compound: α1 ACT-cathepsin G complexes: serpin-enzyme complex
- blocking of binding of 125I peptide 105Y [7]: blocked

Compound: SIPPEVKFNKPFVYLI [peptide 105Y, carboxy-terminal fragment, amino acids 359-374, of α1 AT]
- pKd ([7]; 125I peptide 105Y, HepG2 cells and human blood monocytes, read-out: K2): 7.40
- direct binding of 125I peptide 105Y ([7]; HepG2 cells and human blood monocytes): bound specifically and saturably
- inhibition of binding of 125I 105C [8]: inhibited
- inhibition of binding of α1 AT-125I trypsin complexes to HepG2 cells [1]: inhibits binding
- inhibition of internalization of α1 AT-125I trypsin complexes [2]: inhibits internalization
- competition for binding of substance P [5]: do not compete for binding of substance P
- blocking of binding of 125I α1 AT-elastase complexes [9]: blocked binding
- competition for binding of 125I peptide 105Y to HepG2 cells [3]: compete
- effect on synthesis of α1 AT [10]: mediated an increase in synthesis of α1 AT

- solubility [11]: soluble in both water and DMSO
Compound: EVKFNKP [peptide 105B, Glu-Val-Lys-Phe-Asn-Lys-Pro]

Compound: α1 AT-elastase complexes: complex of α1 AT with neutrophil elastase
- blocking of binding of 125I peptide 105Y [7]: blocked

Compound: amyloid-β-protein
- competition for binding of substance P [5]: do not compete for binding of substance P
- competition for binding to, and cross-linking of, the SEC receptor [6]: compete for binding to, and cross-linking of, the SEC receptor
